Measured values: PubChem BioAssay AID330 (DTP/NCI, 2004)
Toxic doses and inconclusive results are not listed. How the source made its calls: active means survival T/C of 150% or more; inactive means T/C below 125% in these data.

Tested on: P388 leukemia ip, CD2F1 mice, survival T/C
Experiment: NCI In Vivo Anticancer Drug Screen. Data for tumor model P388 Leukemia (intraperitoneal) in CD2F1 (CDF1) mice
Conditions: endpoint: median survival time, higher = longer survival
Outline: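 Mice carrying the transplanted tumor received test compound or vehicle. Survival was recorded in each group, and the value is the treated-group measurement divided by that of the vehicle-treated control group.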

[1] = dose: 50.0 mg/kg/injection, schedule: Q01DX005 (ip), vehicle: saline with Tween-80
[2] = dose: 100.0 mg/kg/injection, schedule: Q01DX005 (ip), vehicle: saline with Tween-80
[3] = dose: 15.0 mg/kg/injection, schedule: Q01DX005 (ip), vehicle: saline with Tween-80
[4] = dose: 30.0 mg/kg/injection, schedule: Q01DX005 (ip), vehicle: saline with Tween-80
[5] = dose: 100.0 mg/kg/injection, schedule: Q01DX001 (ip), vehicle: saline with Tween-80
[6] = dose: 200.0 mg/kg/injection, schedule: Q01DX001 (ip), vehicle: saline with Tween-80
[7] = dose: 400.0 mg/kg/injection, schedule: Q01DX001 (ip), vehicle: saline with Tween-80
[8] = dose: 50.0 mg/kg/injection, schedule: Q01DX005 (ip), vehicle: Klucel (hydroxypropylcellulose) (HPC)
[9] = dose: 100.0 mg/kg/injection, schedule: Q01DX005 (ip), vehicle: Klucel (hydroxypropylcellulose) (HPC)
[10] = dose: 200.0 mg/kg/injection, schedule: Q01DX005 (ip), vehicle: Klucel (hydroxypropylcellulose) (HPC)
[11] = dose: 200.0 mg/kg/injection, schedule: Q01DX005 (ip), vehicle: saline with Tween-80
[12] = dose: 50.0 mg/kg/injection, schedule: Q01DX009 (ip), vehicle: saline
[13] = dose: 100.0 mg/kg/injection, schedule: Q01DX009 (ip), vehicle: saline
[14] = dose: 200.0 mg/kg/injection, schedule: Q01DX009 (ip), vehicle: saline
[15] = dose: 60.0 mg/kg/injection, schedule: Q01DX005 (ip), vehicle: saline
[16] = dose: 100.0 mg/kg/injection, schedule: Q04DX003 (ip), vehicle: saline
[17] = dose: 200.0 mg/kg/injection, schedule: Q04DX003 (ip), vehicle: saline
[18] = dose: 50.0 mg/kg/injection, schedule: Q01DX009 (ip), vehicle: Klucel (hydroxypropylcellulose) (HPC)
[19] = dose: 100.0 mg/kg/injection, schedule: Q01DX009 (ip), vehicle: Klucel (hydroxypropylcellulose) (HPC)
[20] = dose: 200.0 mg/kg/injection, schedule: Q01DX009 (ip), vehicle: Klucel (hydroxypropylcellulose) (HPC)

Measured: T/C

CN(C)c1ccc(C2(c3ccc(N(C)C)cc3)c3ccccc3C(=O)N2N)cc1
inactive: [1] 86 % of control | [2] 86 % of control

NS(=O)(=O)c1ccc(Nc2c3ccccc3nc3c([N+](=O)[O-])cccc23)cc1
inactive: [3] 97 % of control | [4] 90 % of control | dose: 240.0 mg/kg/injection, schedule: Q01DX005 (ip), vehicle: saline with Tween-80 88 % of control

O=[N+]([O-])c1ccc(N=Nc2ccc(NNc3ccc([N+](=O)[O-])cn3)c3cc4ccccc4cc23)nc1
inactive: [1] 100 % of control | [2] 110 % of control

NC(=S)N/N=C\C(=O)c1cccc(O)c1
inactive: dose: 50.0 mg/kg/injection, schedule: Q01DX009 (ip), vehicle: saline with Tween-80 99 % of control | dose: 100.0 mg/kg/injection, schedule: Q01DX009 (ip), vehicle: saline with Tween-80 100 % of control | dose: 200.0 mg/kg/injection, schedule: Q01DX009 (ip), vehicle: saline with Tween-80 105 % of control

CCOC(=O)C12CCC(C(=O)OCC)(CC13SCCS3)C1(C2)SCCS1
inactive: [5] 97 % of control | [6] 99 % of control | [7] 97 % of control

O=C1NC(Cc2c[nH]c3ccccc23)C(=O)N2CCCC12 (stereo not given)
inactive: [8] 100 % of control | [9] 104 % of control | [10] 97 % of control

CC1=C(C(C)(C)C)C(=O)c2ccccc2C1=O
inactive: [8] 100 % of control | [9] 103 % of control | [10] 107 % of control

C=C1COC(O)(C2OCOC(C3CC(=O)NC(=O)C3)C2O)C1C (stereo not given)
active: dose: 32.0 micrograms/kg/injection, schedule: Q01DX009 (ip), vehicle: water 181 % of control
inactive: dose: 0.03 mg/kg/injection, schedule: Q01DX009 (ip), vehicle: water 107 % of control | dose: 2.0 micrograms/kg/injection, schedule: Q01DX009 (ip), vehicle: water 119 % of control | dose: 4.0 micrograms/kg/injection, schedule: Q01DX009 (ip), vehicle: water 119 % of control | dose: 7.5 micrograms/kg/injection, schedule: Q01DX009 (ip), vehicle: water 117 % of control

CCC(c1ccc(O)cc1)c1cc2c(cc1OCC(=O)O)OCO2 (stereo not given)
inactive: [1] 102 % of control | [2] 93 % of control | [11] 99 % of control

C=CCC12CC(COc3ccccc3C(N)=O)OC1=Nc1ccccc1NC2=O (stereo not given)
inactive: [1] 113 % of control | [2] 100 % of control | [11] 99 % of control

COC1C(c2cc(C(N)=O)n(-c3ccc([N+](=O)[O-])cc3)n2)OC2OC(C)(C)OC21 (stereo not given)
inactive: [5] 100 % of control | [6] 96 % of control | [7] 94 % of control

Nc1cccnc1S(=O)(=O)O
inactive: [12] 94 % of control | [13] 98 % of control | [14] 98 % of control

Cc1ccc(S(=O)(=O)SC(C)(C)C)cc1
inactive: [8] 112 % of control | [9] 112 % of control | [10] 112 % of control

Cc1cc(Cl)ccc1NC(=O)NC(C)(C)COC(=O)Nc1cccc(Cl)c1
inactive: [3] 99 % of control | [4] 94 % of control | dose: 60.0 mg/kg/injection, schedule: Q01DX005 (ip), vehicle: saline with Tween-80 90 % of control | dose: 120.0 mg/kg/injection, schedule: Q01DX005 (ip), vehicle: saline with Tween-80 86 % of control

N[C@H]1c2ccsc2C(=O)[C@H]1O
active: [15] 153 % of control | dose: 240.0 mg/kg/injection, schedule: Q01DX005 (ip), vehicle: saline 155 % of control

O=C(Nc1cnns1)Oc1ccccc1
inactive: dose: 12.5 mg/kg/injection, schedule: Q01DX009 (ip), vehicle: other 117 % of control | dose: 25.0 mg/kg/injection, schedule: Q01DX009 (ip), vehicle: other 92 % of control | dose: 50.0 mg/kg/injection, schedule: Q01DX009 (ip), vehicle: other 93 % of control | dose: 100.0 mg/kg/injection, schedule: Q01DX009 (ip), vehicle: other 92 % of control | dose: 200.0 mg/kg/injection, schedule: Q01DX009 (ip), vehicle: other 97 % of control

Cn1c2nc(-[n+]3ccc(-c4ccccc4)cc3)nc-2c([O-])n(C)c1=O
inactive: [16] 99 % of control | [17] 89 % of control

CC1C=CCC(C)(C#N)C1 (stereo not given)
inactive: [18] 103 % of control | [19] 100 % of control | [20] 108 % of control

CCCCCCC(/C=C/c1ccc(Cl)c(Cl)c1)=N\NC(=O)C[n+]1ccccc1
inactive: [12] 99 % of control | [13] 101 % of control | [14] 101 % of control

COC(=O)C1=CN2CCc3c([nH]c4ccccc34)C2(C)C2CN3CCc4c([nH]c5ccccc45)C3CC12 (stereo not given)
inactive: dose: 2.25 mg/kg/injection, schedule: Q01DX009 (ip), vehicle: Klucel (hydroxypropylcellulose) (HPC) 98 % of control | dose: 4.5 mg/kg/injection, schedule: Q01DX009 (ip), vehicle: Klucel (hydroxypropylcellulose) (HPC) 106 % of control | dose: 9.0 mg/kg/injection, schedule: Q01DX009 (ip), vehicle: Klucel (hydroxypropylcellulose) (HPC) 113 % of control | dose: 18.0 mg/kg/injection, schedule: Q01DX009 (ip), vehicle: Klucel (hydroxypropylcellulose) (HPC) 92 % of control | dose: 36.0 mg/kg/injection, schedule: Q01DX009 (ip), vehicle: Klucel (hydroxypropylcellulose) (HPC) 98 % of control

C=CC(COC(=O)C(C)(C)OC(C)=O)c1ccc(OC(=O)C(C)C)c(OC)c1 (stereo not given)
inactive: dose: 12.5 mg/kg/injection, schedule: Q01DX009 (ip), vehicle: Klucel (hydroxypropylcellulose) (HPC) 94 % of control | [18] 100 % of control | [19] 102 % of control

CNC(=S)N/N=C(C)\C=N/Nc1cccc(Cl)c1
inactive: [16] 92 % of control | [17] 93 % of control | dose: 400.0 mg/kg/injection, schedule: Q04DX003 (ip), vehicle: saline 100 % of control

COc1cccc2c1NC(O)c1cccn1C2=O (stereo not given)
inactive: dose: 0.1 mg/kg/injection, schedule: Q01DX005 (ip), vehicle: water 93 % of control | dose: 0.2 mg/kg/injection, schedule: Q01DX005 (ip), vehicle: water 93 % of control | dose: 0.4 mg/kg/injection, schedule: Q01DX005 (ip), vehicle: water 96 % of control | dose: 0.8 mg/kg/injection, schedule: Q01DX005 (ip), vehicle: water 93 % of control | dose: 1.6 mg/kg/injection, schedule: Q01DX005 (ip), vehicle: water 98 % of control | dose: 5.0 mg/kg/injection, schedule: Q01DX005 (ip), vehicle: distilled water + Tween-80 90 % of control | dose: 10.0 mg/kg/injection, schedule: Q01DX005 (ip), vehicle: distilled water + Tween-80 98 % of control | dose: 20.0 mg/kg/injection, schedule: Q01DX005 (ip), vehicle: distilled water + Tween-80 100 % of control | dose: 40.0 mg/kg/injection, schedule: Q01DX005 (ip), vehicle: distilled water + Tween-80 100 % of control | dose: 80.0 mg/kg/injection, schedule: Q01DX005 (ip), vehicle: distilled water + Tween-80 93 % of control

Nc1cc(Cl)ccc1-c1ccccc1
inactive: [19] 95 % of control | [20] 92 % of control

O=C1CN(c2ccccc2)C(=O)CN1/N=C/c1ccc(O)c(O)c1
inactive: [1] 93 % of control | [2] 100 % of control | [11] 101 % of control

CN(C)CCCN=c1c2ccccc2n(C)c2[nH]c(=O)n(C)c(=O)c12
inactive: dose: 7.5 mg/kg/injection, schedule: Q01DX005 (ip), vehicle: saline 107 % of control | dose: 15.0 mg/kg/injection, schedule: Q01DX005 (ip), vehicle: saline 124 % of control | [15] 123 % of control

Nc1ccc2snc3c2c1C(=O)c1ccccc1-3
inactive: [8] 99 % of control | [9] 91 % of control | [10] 100 % of control

NCCCn1ccc2c3ccccc3nc-2c1
inactive: dose: 12.5 mg/kg/injection, schedule: Q01DX009 (ip), vehicle: water 105 % of control | dose: 25.0 mg/kg/injection, schedule: Q01DX009 (ip), vehicle: water 90 % of control | dose: 50.0 mg/kg/injection, schedule: Q01DX009 (ip), vehicle: water 104 % of control | dose: 100.0 mg/kg/injection, schedule: Q01DX009 (ip), vehicle: water 105 % of control

CC([NH-])CC(C)[NH-].[Cl][Pt+2][Cl] (stereo not given)
inactive: dose: 0.78 mg/kg/injection, schedule: Q04DX002 (ip), vehicle: saline with Tween-80 119 % of control
